Reference: ChEMBL document CHEMBL6121046, “Discovery of Novel Hydrazide-Based HDAC3 Inhibitors as Epigenetic Immunomodulators for Cancer Immunotherapy” (J Med Chem, 2025)
Calls of active or inactive are those of the source. The calls are words filed in the database; no cut-off is given here.

How the values were obtained:
MC-38 [1] = test: Induction of apoptosis in mouse MC38 cells assessed as early apoptotic cells at 2 uM measured after 48 hrs by FITC/PI staining based flow cytometry (Rvb =12.27%); format: functional
MC-38 [2] = test: Increase in acetylated H3 in mouse MC38 cells at 0.1 to 2 uM measured after 24 hrs incubation by Western blot analysis; format: functional, cell-based; settings: dose 0.1-2 µM
MC-38 [3] = test: Induction of apoptosis in mouse MC38 cells assessed as necrotic cells at 4 uM measured after 48 hrs by FITC/PI staining based flow cytometry (reference value: 0.56%); format: functional
MC-38 [4] = test: Cell cycle arrest in mouse MC38 cells assessed as decrease in accumulation of cells at G0/G1 phase measured after 48 hrs by flow cytometry; format: functional, cell-based; settings: dose 1-8 µM
MC-38 [5] = test: Induction of apoptosis in mouse MC38 cells assessed as viable cells at 4 uM measured after 48 hrs by FITC/PI staining based flow cytometry (reference value: 82.07%); format: functional; settings: read-out: Activity
MC-38 [6] = test: Induction of apoptosis in mouse MC38 cells assessed as late apoptotic cells at 2 uM measured after 48 hrs by FITC/PI staining based flow cytometry (reference value: 5.07%); format: functional
MC-38 [7] = test: Induction of apoptosis in mouse MC38 cells assessed as late apoptotic cells at 8 uM measured after 48 hrs by FITC/PI staining based flow cytometry (reference value: 5.07%); format: functional
B16-F10 (Mus musculus) = test: Antiproliferative activity against mouse B16-F10 cells measured after 48 hrs incubation by MTT assay relative to control; settings: B16-F10, 48 h
MC-38 [8] = test: Induction of apoptosis in mouse MC38 cells assessed as necrotic cells at 8 uM measured after 48 hrs by FITC/PI staining based flow cytometry (reference value: 0.56%); format: functional
MC-38 [9] = test: Antiproliferative activity against mouse MC38 cells measured after 48 hrs incubation by MTT assay relative to control; format: functional, cell-based; settings: MC-38, 48 h
MC-38 [10] = test: Effect on acetylated alpha-tubulin in mouse MC38 cells at 0.1 to 2 uM measured after 24 hrs incubation by Western blot analysis; format: functional, cell-based; settings: dose 0.1-2 µM
Histone deacetylase 1 = Histone deacetylase 1 (Homo sapiens, UniProt Q13547); test: Inhibition of human recombinant HDAC1 pre-incubated with compounds for 10 mins measured followed by 60 mins of substrate addition
MC-38 [11] = test: Induction of apoptosis in mouse MC38 cells assessed as early apoptotic cells at 1 uM measured after 48 hrs by FITC/PI staining based flow cytometry (Rvb =12.27%); format: functional
MC-38 [12] = test: Induction of apoptosis in mouse MC38 cells assessed as viable cells at 2 uM measured after 48 hrs by FITC/PI staining based flow cytometry (reference value: 82.07%); format: functional; settings: read-out: Activity
MC-38 [13] = test: Induction of apoptosis in mouse MC38 cells assessed as early apoptotic cells at 8 uM measured after 48 hrs by FITC/PI staining based flow cytometry (Rvb =12.27%); format: functional
B16-F10 = test: Antiproliferative activity against mouse B16-F10 cells at 1 uM measured after 48 hrs incubation by MTT assay relative to control
MC-38 [14] = test: Cell cycle arrest in mouse MC38 cells assessed as increase in accumulation of cells at G2/M phase measured after 48 hrs by flow cytometry; format: functional, cell-based; settings: dose 1-8 µM
MC-38 [15] = test: Effect on acetylated SMC3 in mouse MC38 cells at 0.1 to 2 uM measured after 24 hrs incubation by Western blot analysis; format: functional, cell-based; settings: dose 0.1-2 µM
MC-38 [16] = test: Induction of apoptosis in mouse MC38 cells assessed as early apoptotic cells at 4 uM measured after 48 hrs by FITC/PI staining based flow cytometry (Rvb =12.27%); format: functional
Histone deacetylase 3 = Histone deacetylase 3 (Homo sapiens, UniProt O15379); test: Inhibition of human recombinant HDAC3 pre-incubated with compounds for 10 mins measured followed by 60 mins of substrate addition
Histone deacetylase 7 = target: T1, Histone deacetylase 7 (Homo sapiens, UniProt Q8WUI4); test: Inhibition of human recombinant HDAC7 pre-incubated with compounds for 10 mins measured followed by 60 mins of substrate addition
T1 sequence (Q8WUI4 whole entry): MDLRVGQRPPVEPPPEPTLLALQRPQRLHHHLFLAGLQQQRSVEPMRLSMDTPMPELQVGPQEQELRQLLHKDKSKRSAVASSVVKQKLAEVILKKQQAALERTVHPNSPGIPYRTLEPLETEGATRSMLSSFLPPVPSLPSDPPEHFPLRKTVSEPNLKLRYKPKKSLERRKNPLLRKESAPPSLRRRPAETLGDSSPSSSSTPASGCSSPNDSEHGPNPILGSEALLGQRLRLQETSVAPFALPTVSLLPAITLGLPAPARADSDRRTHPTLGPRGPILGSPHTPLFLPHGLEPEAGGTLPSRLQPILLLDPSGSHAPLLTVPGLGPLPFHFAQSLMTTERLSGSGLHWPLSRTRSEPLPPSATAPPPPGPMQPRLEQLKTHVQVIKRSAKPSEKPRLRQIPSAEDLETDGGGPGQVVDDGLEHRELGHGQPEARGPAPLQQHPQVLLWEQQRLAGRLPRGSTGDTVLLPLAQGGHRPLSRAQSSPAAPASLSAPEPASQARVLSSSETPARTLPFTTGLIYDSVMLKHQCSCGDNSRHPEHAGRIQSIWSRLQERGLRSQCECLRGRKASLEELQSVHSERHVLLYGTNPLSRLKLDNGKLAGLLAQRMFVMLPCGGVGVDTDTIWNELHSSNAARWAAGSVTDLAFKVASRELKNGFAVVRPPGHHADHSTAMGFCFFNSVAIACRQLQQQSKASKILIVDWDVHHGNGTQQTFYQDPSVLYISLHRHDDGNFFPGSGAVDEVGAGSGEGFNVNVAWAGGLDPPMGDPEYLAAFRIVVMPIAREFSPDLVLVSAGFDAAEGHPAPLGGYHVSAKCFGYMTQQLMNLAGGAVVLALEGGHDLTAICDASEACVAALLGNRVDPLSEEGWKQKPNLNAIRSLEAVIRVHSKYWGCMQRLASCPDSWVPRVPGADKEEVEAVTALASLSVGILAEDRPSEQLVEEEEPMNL

MC-38 [17] = test: Induction of apoptosis in mouse MC38 cells assessed as viable cells at 8 uM measured after 48 hrs by FITC/PI staining based flow cytometry (reference value: 82.07%); format: functional; settings: read-out: Activity
[18] = Antiproliferative activity against […] cells measured after 48 hrs incubation by MTT assay relative to control; format: functional, cell-based; settings: Mus musculus, Lung cancer cell line
MCF7 = test: Antiproliferative activity against human MCF7 cells measured after 48 hrs incubation by MTT assay relative to control; format: functional, cell-based; settings: MCF7, 48 h
MC-38 [19] = test: Induction of PD-L1 expression in mouse MC38 cells measured after 24 hrs incubation by Western blot analysis; format: functional, cell-based; settings: dose 1-4 µM

Chain of Histone deacetylase 1 (Q13547 whole entry): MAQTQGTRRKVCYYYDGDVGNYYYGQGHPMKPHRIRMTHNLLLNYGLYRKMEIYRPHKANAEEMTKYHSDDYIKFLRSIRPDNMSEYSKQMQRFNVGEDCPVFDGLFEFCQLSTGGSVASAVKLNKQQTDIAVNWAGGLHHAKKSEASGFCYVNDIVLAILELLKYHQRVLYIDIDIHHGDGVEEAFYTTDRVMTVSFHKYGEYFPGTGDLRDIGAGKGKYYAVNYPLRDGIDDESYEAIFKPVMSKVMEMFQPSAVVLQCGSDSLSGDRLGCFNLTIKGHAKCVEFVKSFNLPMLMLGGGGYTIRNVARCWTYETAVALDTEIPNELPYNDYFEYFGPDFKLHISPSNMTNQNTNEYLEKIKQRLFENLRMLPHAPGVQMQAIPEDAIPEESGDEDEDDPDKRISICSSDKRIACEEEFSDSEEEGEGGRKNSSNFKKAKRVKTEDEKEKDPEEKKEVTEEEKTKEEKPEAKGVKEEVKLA
Chain of Histone deacetylase 3 (O15379 whole entry): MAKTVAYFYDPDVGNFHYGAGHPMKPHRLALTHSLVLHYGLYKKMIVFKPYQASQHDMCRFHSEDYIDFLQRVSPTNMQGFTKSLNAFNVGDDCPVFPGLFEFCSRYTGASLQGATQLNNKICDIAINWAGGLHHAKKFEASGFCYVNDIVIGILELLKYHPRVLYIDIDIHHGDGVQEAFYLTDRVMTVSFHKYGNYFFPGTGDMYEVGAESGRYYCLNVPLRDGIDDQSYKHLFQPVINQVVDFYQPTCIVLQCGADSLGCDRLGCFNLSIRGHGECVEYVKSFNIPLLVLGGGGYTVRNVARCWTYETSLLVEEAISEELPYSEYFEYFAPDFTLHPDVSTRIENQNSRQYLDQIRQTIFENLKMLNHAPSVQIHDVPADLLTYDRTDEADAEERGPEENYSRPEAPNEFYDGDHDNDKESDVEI

| Structure (SMILES) | Activity (MC-38 [1]) [%] | Activity (MC-38 [2]) | Activity (MC-38 [3]) [%] | Activity (MC-38 [4]) | viability at 4 µM (MC-38 [5]) [%] | Activity (MC-38 [6]) [%] | Activity (MC-38 [7]) [%] | IC50 (B16-F10 (Mus musculus)) [nM] | Activity (MC-38 [8]) [%] | IC50 (MC-38 [9]) [nM] | Activity (MC-38 [10]) | IC50 (Histone deacetylase 1) [µM] | Activity (MC-38 [11]) [%] | viability at 2 µM (MC-38 [12]) [%] | Activity (MC-38 [13]) [%] | Activity (B16-F10) [%] | Activity (MC-38 [14]) | Activity (MC-38 [15]) | Activity (MC-38 [16]) [%] | IC50 (Histone deacetylase 3) [nM] | also measured |
| --- | --- | --- | --- | --- | --- | --- | --- | --- | --- | --- | --- | --- | --- | --- | --- | --- | --- | --- | --- | --- | --- |
| CCCNNC(=O)c1ccc(CNC(=O)c2cnc(-c3cccc4ccccc34)[nH]2)cc1 | 18.6 | Active | 0.92 | Dose-dependent-effect | 28.3 | 41.1 | 46.63 | 2470 | 8.29 | 2300 | inactive | 2.03 | 15.8 | 31.3 | 22.9 | 55.07 | Active | inactive | 43.9 | 61 | IC50 (Histone deacetylase 7): > 10 µM; viability at 8 µM (MC-38 [17]): 22.2%; IC50 [18]: 930 nM; IC50 (MCF7): 2160 nM; Activity (MC-38 [19]): Dose-dependent-effect |
| CCCNNC(=O)c1ccc(CNC(=O)c2cnc(-c3ccc4occc4c3)[nH]2)cc1 | 31.2 | Active | 2.1 | Dose-dependent-effect | 18.2 | 28.73 | 60.9 | 2690 | 2.85 | 1800 | inactive | 3.98 | 11.97 | 37.9 | 19.83 | 54.57 | Active | inactive | 24.75 | 53 | IC50 (Histone deacetylase 7): > 10 µM; viability at 8 µM (MC-38 [17]): 16.4%; IC50 [18]: 1030 nM; IC50 (MCF7): 1900 nM; Activity (MC-38 [19]): Dose-dependent-effect |
